Test results taken from paper PMC13172357 (Nature Communications, 2026).

Experiments:
[1] = tested on: Ma-Mel-47 cells; experiment: Total proteome analysis, DIA mass spectrometry, Ma-Mel-47 cells; assay type: cell-based, H. sapiens; settings: DIA Ma-Mel-47, 1 µM
Protocol: (§1) Following treatment, cells were harvested, washed twice with PBS, and pellets were flash frozen in liquid nitrogen before being stored at −80 °C. Samples were prepared using the single-pot, solid-phase-enhanced sample-preparation (SP3) strategy. All buffers and solutions were prepared with mass spectrometry (MS)-grade water (Honeywell). Cell pellets were taken up in 100 µL 1x sample buffer (50 mM Hepes pH 8.0, 1% (wt/v) SDS, 1% (v/v) NP-40, 10 mM TCEP, 40 mM chloroacetamide) and samples were heated at 90 °C for 5 min prior to sonication with a Bioruptor UCD-300 (Diagenode) for ten cycles of 1 min pulse and 30 s pause at high power. The samples were then supplemented with Benzonase (20 U/sample) and sonified for 5 min in a water bath (Bandelin) followed by 30 min incubation at […].
(§2) The protein extracts were then centrifuged (20000 ×g, RT, 40 min) and the protein concentration of the cleared lysates was determined using the Pierce 660 nm Protein Assay Reagent (#22660; Thermo Scientific) with the Ionic Detergent Compatibility Reagent (#22663; Thermo Scientific) according to the manufacturers’ instructions. Next, 15 µg of total protein per sample in a volume of 100 µL sample buffer was transferred to a 500 µL 96-well plate and treated with 7 U of benzonase (#71206; Merck Millipore) in dilution buffer (20 mM Hepes pH 8.0, 2 mM MgCl2) at 37 °C for 30 min with agitation at 1500 rpm. After Benzonase treatment samples were heated to 90 °C for 5 min and after cooling down to room temperature, iodoacetamide to a final concentration of 10 mM was added for complete alkylation of cysteines (37 °C, 15 min, 1000 rpm, in the dark).
(§3) Then, 3 µL of a 50 µg/µL 1:1 mixture of hydrophilic (#45152105050250) and hydrophobic (#65152105050250) carboxylate modified Sera-Mag SpeedBeads (Cytiva), that were washed twice with MS-grade water, were added to the samples. The next steps were carried out at room temperature unless noted otherwise. Afterwards, the samples were mixed shortly (1 min, 1000 rpm) and collected by short centrifugation (10 s, 200 ×g). […]

[2] = tested on: Panc89 cells; experiment: Total proteome analysis, DIA mass spectrometry, Panc89 cells; assay type: cell-based, H. sapiens; settings: DIA Panc89, 1 µM
Protocol: as §1
as §2, with “After Benzonase treatment samples were heated to 90 °C for 5 min and after cooling down to room temperature, iodoacetamide to a final concentration of 10 mM was added for complete alkylation of cysteines (37 °C, 15 min, 1000 rpm, in the dark).” left out

[3] = target: T1, NanoLuc-USP7 and HaloTag-VHL (Homo sapiens, UniProt P40337+Q93009); experiment: Cellular ternary complex formation assay (NanoBRET), HEK293T cells; assay type: cell-based; settings: for Ternary complex induction (in words): NanoBRET
T1 construct: expressed in transfected cells; host or cells: HEK293T, transient transfection (FuGENE HD)
Protocol: The assay was performed as described step-by-step elsewhere. USP7 (NanoLuc-USP7) and VHL (HaloTag-VHL) were cloned in frame with N-terminal NanoLuc or HaloTag, respectively. For transfections, HEK293T cells were diluted in Opti-MEM medium without phenol red (Life Technologies) to 4×10^5 cells/mL and 9 µL were pipetted into each well of a white 384-well plate (Greiner 781207). 1 mL transfection mix was prepared containing 30 µL FuGENE HD (Promega, E2312) and 8 µL of each plasmid, incubated 20 min at RT and 1 µL were pipetted into each well leading to the total assay volume of 10 µL. […] 2 h prior to BRET measurements, the compounds were titrated to the cells using an Echo acoustic dispenser and the cells were incubated further at 37 °C and 5% CO2 to allow complex formation. NanoBRET Nano-Glo substrate and Extracellular NanoLuc Inhibitor (Promega, N2540) were then added as per the manufacturer’s protocol, and filtered luminescence was recorded on a PHERAstar FSX plate reader (BMG Labtech) equipped with a luminescence filter pair (donor: 450 nm BP filter; acceptor: 610 nm LP filter). Data were analyzed using GraphPad Prism 10 software.

[4] = tested on: Panc89 cells; experiment: Confluence measurement (cell growth), Panc89; assay type: cell-based, human; settings: Panc89, 1-10 µM, 72 h, 25 mM or 5 mM D-glucose
[5] = target: T2, USP7 (Homo sapiens, UniProt Q93009); experiment: Immunofluorescence staining of USP7, Panc89 cells; assay type: cell-based; settings: Panc89, 1 µM, 24 h
T2 construct: allowed the analysis of endogenous USP7 degradation in both cell lines; endogenous in cells; host or cells: Panc89 (PDAC) and Ma-Mel-47 (melanoma) cells
Protocol: Panc89 cells were seeded on 96-well plates (89626, Ibidi) and treated with either DMSO or compound for the indicated time and concentration. Cells were then fixed with 4% PFA in PBS for 20 min, permeabilized with 0.1% Triton X-100 in PBS for 10 min and incubated in blocking buffer containing 2% BSA in PBS for 1 h. Three 10 min washes with PBS were performed between different steps. Cells were treated with primary antibody anti-USP7 (ab190183, Abcam, rabbit, 1:500) in blocking solution for 1 h at RT. […] Finally, cells were stained with DAPI (Invitrogen, 1 µg/mL) in PBS for 10 min and mounted with aqueous mounting medium (50001, Ibidi) for microscopy. Plates were imaged on a fully automated inverted EVOS M7000 microscope system (Invitrogen) with X-Apo 20x air objective (0.8 NA, Olympus, AMEP4906) using DAPI (AMEP4950), GFP (AMEP4951), RFP (AMEP4952), and Cy5 (AMEP4956) LED light cubes. Images were captured using a high-sensitivity 3.2 MP monochrome CMOS camera and were processed with Omero (v. web 5.28.0).

[6] = tested on: Panc89 cells; experiment: Total proteome analysis, DDA mass spectrometry, Panc89 cells; assay type: cell-based, H. sapiens; settings: DDA Panc89, 1 µM
Protocol: as §1, §2, §3

T1 sequence (Q93009 whole entry): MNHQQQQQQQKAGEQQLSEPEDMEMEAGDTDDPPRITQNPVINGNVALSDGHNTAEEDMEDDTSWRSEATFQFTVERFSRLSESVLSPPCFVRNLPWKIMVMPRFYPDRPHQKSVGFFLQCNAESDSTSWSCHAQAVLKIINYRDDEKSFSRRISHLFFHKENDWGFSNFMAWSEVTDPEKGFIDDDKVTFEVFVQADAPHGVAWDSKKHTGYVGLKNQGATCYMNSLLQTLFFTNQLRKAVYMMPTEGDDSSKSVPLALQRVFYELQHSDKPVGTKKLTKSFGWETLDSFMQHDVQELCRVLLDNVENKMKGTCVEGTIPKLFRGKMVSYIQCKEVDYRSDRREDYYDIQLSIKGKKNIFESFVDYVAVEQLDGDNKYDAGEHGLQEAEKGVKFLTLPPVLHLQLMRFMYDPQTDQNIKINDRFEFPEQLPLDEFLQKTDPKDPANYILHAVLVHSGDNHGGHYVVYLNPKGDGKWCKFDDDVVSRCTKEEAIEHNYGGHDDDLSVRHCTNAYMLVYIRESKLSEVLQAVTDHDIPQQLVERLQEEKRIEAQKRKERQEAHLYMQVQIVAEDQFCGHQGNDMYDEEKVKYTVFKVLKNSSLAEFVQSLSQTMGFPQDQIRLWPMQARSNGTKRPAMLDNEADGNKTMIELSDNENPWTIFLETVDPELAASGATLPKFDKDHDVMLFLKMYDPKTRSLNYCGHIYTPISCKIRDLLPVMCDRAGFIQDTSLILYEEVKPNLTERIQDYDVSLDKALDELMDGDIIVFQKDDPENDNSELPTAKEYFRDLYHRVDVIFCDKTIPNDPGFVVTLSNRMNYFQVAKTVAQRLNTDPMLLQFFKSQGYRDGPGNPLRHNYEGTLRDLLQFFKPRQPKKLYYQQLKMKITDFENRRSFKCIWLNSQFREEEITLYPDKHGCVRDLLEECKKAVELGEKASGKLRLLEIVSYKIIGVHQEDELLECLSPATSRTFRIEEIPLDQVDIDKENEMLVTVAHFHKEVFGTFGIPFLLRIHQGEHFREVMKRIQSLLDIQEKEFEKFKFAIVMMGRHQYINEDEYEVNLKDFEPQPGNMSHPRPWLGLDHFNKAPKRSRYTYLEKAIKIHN
T1 sequence (P40337 whole entry): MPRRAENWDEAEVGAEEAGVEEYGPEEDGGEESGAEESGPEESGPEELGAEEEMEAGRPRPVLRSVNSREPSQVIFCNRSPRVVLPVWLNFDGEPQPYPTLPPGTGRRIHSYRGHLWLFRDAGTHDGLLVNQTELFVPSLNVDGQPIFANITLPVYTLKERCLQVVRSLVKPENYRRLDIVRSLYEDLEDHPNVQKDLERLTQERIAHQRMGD
T1 sequence (Q15370 whole entry partner): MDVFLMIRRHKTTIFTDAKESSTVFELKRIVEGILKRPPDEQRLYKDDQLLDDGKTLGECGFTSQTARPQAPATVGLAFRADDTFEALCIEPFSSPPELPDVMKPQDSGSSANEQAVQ
T1 sequence (Q15369 whole entry partner): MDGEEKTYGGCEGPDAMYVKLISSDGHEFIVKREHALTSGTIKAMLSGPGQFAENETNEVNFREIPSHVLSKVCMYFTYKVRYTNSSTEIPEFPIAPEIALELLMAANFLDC
T2 sequence (Q93009 whole entry): as the sequence (Q93009 whole entry) above

Row | Compound | Changes to the proteome (in words) ([1]; 72 h) | Changes to the proteome (in words) ([2]; 72 h) | Ternary complex induction (in words) [3] | Cell growth (in words) [4] | Proteins significantly decreased (in words) ([2]; 6 h) | EC50 ([3]; compound 2 h prior BRET measurement, read-out: EC50 (half-maximal ternary complex formation concentration)) | USP7 immunofluorescence signal (in words) [5] | Proteins significantly decreased (in words) ([6]; 6 h) | Reduction of USP7 protein levels ([6]; after three days) | USP7 protein level change (in words) ([1]; 6 h) | USP7 protein level change (in words) ([1]; 24 h)
1 | Cc1ncsc1-c1ccc(CNC(=O)[C@@H]2C[C@H](O)CN2C(=O)[C@@H](NC(=O)[C@H]2CC[C@H](C(=O)N3CCN(c4ccc(-n5ncc6c(=O)n(CC7(O)CCN(C(=O)C[C@@H](C)c8ccccc8)CC7)cnc65)cc4)CC3)CC2)C(C)(C)C)cc1 [NK245] | only showed minimal changes to the proteome | only showed minimal changes to the proteome | neither the negative control NK245 nor the VHL ligand VH298 induced a ternary complex | – | – | – | – | – | – | – | –
2 | Cc1ncsc1-c1ccc([C@H](C)NC(=O)[C@@H]2C[C@@H](O)CN2C(=O)[C@@H](NC(=O)[C@H]2CC[C@H](C(=O)N3CCN(c4ccc(-n5ncc6c(=O)n(CC7(O)CCN(C(=O)C[C@@H](C)c8ccccc8)CC7)cnc65)cc4)CC3)CC2)C(C)(C)C)cc1 [NK250] | – | – | – | not affected | USP7 was the only protein that was significantly decreased | 58 nM | strongly reduced | USP7 was the only protein significantly decreased | more than 100 fold | – | –
3 | Cc1ncsc1-c1ccc([C@H](C)NC(=O)[C@@H]2C[C@@H](O)CN2C(=O)[C@@H](NC(=O)C23C4C5C2C2C3C4C52C(=O)N2CCC(C3CCN(c4ccc(-n5ncc6c(=O)n(CC7(O)CCN(C(=O)C[C@@H](C)c8ccccc8)CC7)cnc65)cc4)CC3)CC2)C(C)(C)C)cc1 (stereo partly drawn) [NK266] | – | – | did not increase the BRET signal to the same level | – | – | – | – | – | – | only minimal reduction | the most decreased protein
